Data on 21 compounds can be found in US5328909A, “Cyclopropenone derivatives” (Mitsubishi Kasei Corporation, priority 1991, dated 1994).

Where a name gives a salt, the structure may show the parent alone.

The test has as its target T1, m-calpain (Rattus norvegicus, UniProt Q07009).
T1 construct: m-calpain was purified from rat brain; from tissue; host or cells: rat brain
T1 sequence (Q07009 20-700 limits assumed): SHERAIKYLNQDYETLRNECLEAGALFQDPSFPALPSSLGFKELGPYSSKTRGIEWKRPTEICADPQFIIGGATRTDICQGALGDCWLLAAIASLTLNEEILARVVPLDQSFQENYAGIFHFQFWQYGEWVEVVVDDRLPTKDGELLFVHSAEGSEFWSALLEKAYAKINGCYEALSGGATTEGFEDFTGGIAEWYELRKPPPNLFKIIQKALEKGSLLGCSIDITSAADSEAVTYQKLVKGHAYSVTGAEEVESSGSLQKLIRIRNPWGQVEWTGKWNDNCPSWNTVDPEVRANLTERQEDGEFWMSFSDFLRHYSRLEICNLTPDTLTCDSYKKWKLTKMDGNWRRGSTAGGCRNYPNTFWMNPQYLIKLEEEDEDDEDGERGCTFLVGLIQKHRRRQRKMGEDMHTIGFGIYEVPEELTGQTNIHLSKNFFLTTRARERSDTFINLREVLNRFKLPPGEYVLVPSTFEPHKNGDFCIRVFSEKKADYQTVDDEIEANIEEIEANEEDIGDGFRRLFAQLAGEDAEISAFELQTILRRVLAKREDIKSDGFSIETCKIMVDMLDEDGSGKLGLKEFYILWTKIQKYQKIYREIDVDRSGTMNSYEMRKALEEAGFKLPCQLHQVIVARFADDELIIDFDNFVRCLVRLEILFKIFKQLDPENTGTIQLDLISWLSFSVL
T1 sequence (Q64537 1-270 partner): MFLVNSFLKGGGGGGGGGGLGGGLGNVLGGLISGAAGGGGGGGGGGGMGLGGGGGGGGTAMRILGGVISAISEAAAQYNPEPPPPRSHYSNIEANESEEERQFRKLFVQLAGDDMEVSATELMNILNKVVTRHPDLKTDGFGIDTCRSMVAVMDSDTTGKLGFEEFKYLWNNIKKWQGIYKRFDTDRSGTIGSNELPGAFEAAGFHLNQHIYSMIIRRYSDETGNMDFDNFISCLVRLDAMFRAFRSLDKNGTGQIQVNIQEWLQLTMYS
Kind of test: Thiol protease inhibitory activity against m-calpain purified from rat brain. The format is biochemical. Conditions: Table 4; rat brain enzyme; read-out: Inhibitory activity against m-calpain IC50. The method, then: Inhibitory activity against papain (P-3125, Sigma) and cathepsin B (C-6286, Sigma) was assayed according to the method described in a literature [Biochemical Journal, 201, 189 (1982)]. Capthesin L was purified from rat kidney according to the method in a literature [Journal of Biochemistry, 100, 35 (1986)], and the inhibitory activity against it was assayed in the same manner as described in the above literature for cathepsin B. Further, m-calpain was purified from rat brain according to a known method [Journal of Biological Chemistry, 254, p.3210 (1984)] and the inhibitory activity against it was assayed by a method described in a literature [Journal of Biological Chemistry, 259, 12489 (1984)]. The results are showing in Tables 3 and 4. It is evident from Tables 3 and 4 that the compounds in the present invention have a potent inhibitory activity against thiol proteases such as papain, cathepsin B, cathepsin L, m-calpain or the like.

By IC50 is commonly meant the concentration needed to halve the response being measured. Turning to `CC(C)C[C@H](NC(=O)COCc1ccccc1)C(=O)N[C@@H](C(C)C)[C@@H](O)c1c(-c2ccccc2)c1=O` [54 (No. 166), 2-[(1S, 2S)-2-((S)-2-benzyloxyacetylamino-4-methylvalerylamino)-1-hydroxy-3-methylbutyl]-3-phenylcyclopropenone], the half-maximal inhibitory concentration (IC50) turned out to be 1100 nM. Turning to `CC(C)C[C@H](NS(=O)(=O)c1ccccc1)C(=O)N[C@@H](C(C)C)[C@H](O)c1c(-c2ccccc2)c1=O` [81 (No. 239), 2-[(1R, 2S)-1-hydroxy-3-methyl-2-((S)-4-methyl-2-phenylsulfonylaminovalerylamino)butyl]-3-phenylcyclopropenone], the IC50 came out at 4300 nM. Then `CC(C)C[C@H](NC(=O)COc1cccc(Cl)c1Cl)C(=O)N[C@@H](C(C)C)[C@@H](O)c1c(-c2ccccc2)c1=O` [52 (No. 155), 2-[(1S, 2S)-2-{(S)-2-(2,3-dichlorophenoxyacetylamino)-4-methylvalerylamino}-1-hydroxy-3-methylbutyl]-3-phenylcyclopropenone], with 740 nM; and `CC(C)C[C@H](NC(=O)c1ccc2ccccc2n1)C(=O)N[C@@H](C(C)C)[C@@H](O)c1c(-c2ccccc2)c1=O` [74 (No. 219), 2-[(1S, 2S)-1-hydroxy-3-methyl-2-{(S)-4-methyl-2-(2-quinolylcarbonylamino)valerylamino}butyl-3-phenylcyclopropenone hydrochloride], with 800 nM; and `CC(C)C[C@H](NC(=O)c1ccccc1Cl)C(=O)N[C@@H](C(C)C)[C@@H](O)c1c(-c2ccccc2)c1=O` [60 (No. 178), 2-[(1S, 2S)-2-{(S)-2-(2-chlorobenzoylamino)-4-methylvalerylamino}-hydroxy-3-methylbutyl]-3-phenylcyclopropenone], with 1100 nM. Regarding `CC(C)C[C@H](NC(=O)c1c(F)cccc1F)C(=O)N[C@@H](C(C)C)[C@@H](O)c1c(-c2ccccc2)c1=O` [59 (No. 175), 2-[(1S, 2S)-2-{(S)-2-(2,6-difluorobenzoylamino)-4-methylvalerylamino}-1-hydroxy-3-methylbutyl]-3-phenylcyclopropenone], the IC50 was 1600 nM.

For the compound `Cc1ccccc1C(=O)N[C@@H](CC(C)C)C(=O)N[C@@H](C(C)C)[C@@H](O)c1c(-c2ccccc2)c1=O` [63 (No. 184), 2-[(1S, 2S)-1-hydroxy-3-methyl-2-{(S)-4-methyl-2-(2-toluoylamino)valerylamino}butyl]-3-phenylcyclopropenone], the IC50 amounted to 1600 nM.

In the case of `CC(C)C[C@H](NS(=O)(=O)Cc1ccccc1)C(=O)N[C@@H](C(C)C)[C@@H](O)c1c(-c2ccccc2)c1=O` [78 (No. 237), 2-[(1S, 2S)-2-((S)-2-benzylsulfonylamino-4-methylvalerylamino)-1-hydroxy-3-methylbutyl]-3-phenylcyclopropenone], the IC50 was 440 nM. Consider `CC(C)C[C@H](NC(=O)COc1ccccc1)C(=O)N[C@@H](C(C)C)[C@@H](O)c1c(-c2ccccc2)c1=O` [48 (No. 148), 2-[(1S, 2S)-1-hydroxy-3-methyl-2-((S)-4-methyl-2-phenoxyacetylaminovalerylamino)butyl]-3-phenylcyclopropenone], for which the half-inhibitory concentration (IC50) came out at 630 nM.

`CC(C)C[C@H](NS(=O)(=O)c1ccccc1)C(=O)N[C@@H](C(C)C)[C@@H](O)c1c(-c2ccccc2)c1=O` [80 (No. 239), 2-[(1S, 2S)-1-hydroxy-3-methyl-2-((S)-4-methyl-2-phenylsulfonylaminovalerylamino)butyl]-3-phenylcyclopropenone]: the concentration for half-maximal inhibition (IC50) is 350 nM. As to `CC(C)C[C@H](NC(=O)Cc1ccccc1)C(=O)N[C@@H](C(C)C)[C@@H](O)c1c(-c2ccccc2)c1=O` [41 (No. 132), 2-[(1S, 2S)-1-hydroxy-3-methyl-2-((S)-4-methyl-2-phenylacetylaminovalerylamino)butyl]-3-phenylcyclopropenone], the half-maximal inhibitory concentration (IC50) is 1400 nM. Turning to `CC(C)C[C@H](NC(=O)OCc1ccncc1)C(=O)N[C@@H](C(C)C)[C@H](O)c1c(-c2ccccc2)c1=O` [32 (No. 99), 2-[(1R, 2S)-1-hydroxy-3-methyl-2-{(S)-4-methyl-2-(4-pyridylmethoxycarbonylamino)valerylamino}butyl]-3-phenylcyclopropenone hydrochloride], the IC50 stood at 1200 nM. Turning to `CC(C)C[C@H](NC(=O)CCc1ccccc1)C(=O)N[C@@H](C(C)C)[C@@H](O)c1c(-c2ccccc2)c1=O` [42 (No. 133), 2-[(1S, 2S)-1-hydroxy-3-methyl-2-{(S)-4-methyl-2-(3-phenylpropionylamino)valerylamino}butyl]-3-phenylcyclopropenone], the IC50 is 1500 nM. Then `CC(C)C[C@H](NC(=O)CCOc1ccccc1)C(=O)N[C@@H](C(C)C)[C@@H](O)c1c(-c2ccccc2)c1=O` [55 (No. 167), 2-[(1S, 2S)-1-hydroxy-3-methyl-2-{(S)-4-methyl-2-(3-phenoxypropionylamino)valerylamino}butyl]-3-phenylcyclopropenone], with 800 nM.

`CC(C)C[C@H](NS(=O)(=O)c1ccccc1Cl)C(=O)N[C@@H](C(C)C)[C@@H](O)c1c(-c2ccccc2)c1=O` [84 (No. 246), 2-[(1S, 2S)-2-{(S)-2-(2-chlorophenylsulfonylamino)-4-methylvalerylamino}-1-hydroxy-3-methylbutyl]-3-phenylcyclopropenone]: the IC50 turned out to be 850 nM. As for `CC(C)CCC(=O)N[C@@H](CC(C)C)C(=O)N[C@@H](C(C)C)[C@@H](O)c1c(-c2ccccc2)c1=O` [37 (No. 114), 2-[(1S, 2S)-1-hydroxy-2-((S)-2-isohexanoylamino-4-methylvalerylamino)-3-methylbutyl]-3-phenylcyclopropenone], the IC50 was determined as 2100 nM. Turning to `CC(C)C[C@H](NC(=O)c1ccncc1)C(=O)N[C@@H](C(C)C)[C@@H](O)c1c(-c2ccccc2)c1=O` [72 (No. 213), 2-[(1S, 2S)-1-hydroxy-2-((S)-2-isonicotinoylamino-4-methylvalerylamino)-3-methylbutyl]-3-phenylcyclopropenone], the IC50 was found to be 400 nM.

For the compound `CC(C)C[C@H](NC(=O)CSc1ccccc1)C(=O)N[C@@H](C(C)C)[C@@H](O)c1c(-c2ccccc2)c1=O` [56 (No. 168), 2-[(1S, 2S)-1-hydroxy-3-methyl-2-((S)-4-methyl-2-phenylthioacetylaminovalerylamino}butyl]-3-phenylcyclopropenone], the IC50 came out at 2200 nM. With `Cc1cc(C(=O)N[C@@H](CC(C)C)C(=O)N[C@@H](C(C)C)[C@@H](O)c2c(-c3ccccc3)c2=O)n(C)n1` [69 (No. 203), 2-[(1S, 2S)-2-{(S)-2-(1,3-dimethyl-5-pyrazolylcarbonylamino)-4-methylvalerylamino}-1-hydroxy-3-methylbutyl]-3-phenylcyclopropenone], the IC50 came out at 3000 nM. In the case of `CCCS(=O)(=O)N[C@@H](CC(C)C)C(=O)N[C@@H](C(C)C)[C@@H](O)c1c(-c2ccccc2)c1=O` [77 (No. 232), 2-[(1S, 2S)-1-hydroxy-3-methyl-2-((S)-4-methyl-2-propylsulfonylaminovalerylamino)butyl]-3-phenylcyclopropenone] it was 950 nM. For the compound `CC(C)COC(=O)N[C@@H](CC(C)C)C(=O)N[C@@H](C(C)C)[C@@H](O)c1c(-c2ccccc2)c1=O` [20 (No. 72), 2-[(1S, 2S)-1-hydroxy-2-((S)-2-isobutoxycarbonylamino-4-methylvalerylamino)-3-methylbutyl]-3-phenylcyclopropenone], the IC50 worked out at 1300 nM.
